According to patent US6677309B1, “Anti-cancer drug aldehyde conjugate drugs with enhanced cytotoxicity compounds, compositions and methods” (University Technology Corporation, priority 1997, dated 2004):

Key:
MCF-7 cells = assay: In vitro cytotoxicity, colony formation by crystal violet assay, MCF-7; details: for fold less toxic than the next conjugate: EPIF versus DAUNF, DAUNF versus DOXF, both sensitive (MCF-7) and resistant (MCF-7/ADR) breast cancer cells
Protocol: The term IC50 as used herein refers to the concentration of drug which inhibits cell growth by 50%, i.e., 50% of cells are viable at the IC50 concentration relative to a no-drug control.
Cells were incubated with drug for 3 h in RPMI (Roswell Park Memorial Institute) 1640 media containing 10% fetal bovine serum and 1% DMSO. Plates, were developed using the crystal violet assay. […] In all cases percent survival was determined by the extent of colony formation six days after drug treatment.
All tissue culture materials were obtained from Gibco Life Technologies (Grand Island, N.Y.) unless otherwise stated. MCF-7 breast cancer cells were obtained from American Type Culture Collection (Rockville, Md.). […] Both cell lines were maintained in vitro by serial culture in phenol red-free RPMI Media 1640 supplemented with 10% fetal bovine serum (Gemini Bio-Products, Calbasas, Calif.), L-glutamine (2 mM), HEPES buffer (10 mM), penicillin (100 units/mL), and streptomycin (100 μg/mL). […] Cells were maintained at 37° C. in a humidified atmosphere of 5% CO2 and 95% air.
Cells were dissociated with trypsin-EDTA, counted, and suspended in growth media to a concentration of 5×10^3 cells/mL. Cell suspensions were dispensed in 200 μL aliquots into 96-well tissue culture plates. Plates were then incubated for 24 h at 37° C. in a humidified atmosphere of 5% CO2 and 95% air. The media was replaced with 180 μL of growth media prior to addition of the cytotoxic agents.
Concentrations were then corrected by measuring the solution absorbance at 480 nm (ε=11,500/mole anthracycline). The solutions were then serially diluted in DMSO to give a series of 100× working concentration solutions. For each concentration, the 100× solution was diluted 1:10 in serum-free RPMI Media 1640. 20 μL of the resulting […] solution was immediately added to the appropriate lane. Additionally, one lane was treated with 20 μL of 10% DMSO in serum-free RPMI (no drug) and one lane replaced with 200 μL of 1.5 M Tris buffer (no cells). The cells were incubated at 37° C. for 3 h. The drug solutions were removed and 200 μL of fresh growth media was added to each well.
The extent of colony formation was determined by use of a crystal violet staining assay (Gilles, R. J. et al. (1986), “Determination of cell number in monolayer cultures,” Anal. Biochem. 159:109-113; Reile, H. et al. (1990), “Computerized determination of growth kinetic curves and doubling times from cells in microcultures,” Anal. Biochem. 187:262-267). […] The cells were then stained with 75 μL of 0.1% crystal violet in deionized water for 30 min. […] The plates were blotted dry and 200 μL of 70% ethanol in water was added to each well to solublize the dye. The plates were stored at 4° C. until solubilization was complete (about 4 h). The optical density of each well was measured on an ELISA plate reader at 588 nm. Relative colony sizes were determined by comparison of the drug treated lanes to the control lanes.
MCF-7 breast cancer cells were obtained from American Type Culture Collection (Rockville, Md.). MCF-7/ADR adriamycin resistant breast cancer cells were a gift of Dr. William W. Wells (Michigan State University). Both cell lines were maintained in vitro by serial culture in phenol red-free RPMI Media 1640 supplemented with 10% fetal bovine serum (Gemini Bio-Products, Calbasas, Calif.), L-glutamine (2 mM), HEPES buffer ([…]), penicillin (100 units/mL), and streptomycin (100 μg/mL). […] Cells were maintained at 37° C. in a humidified atmosphere of 5% CO2 and 95% air.
1640 media containing 10% fetal bovine serum. The resulting 90% media/10% DMSO solutions (v/v) were incubated at 37° C. for 6h.

[1] = tested on: self-complementary DNA octamer (GC)4; assay: Drug-DNA conjugate formation with (GC)4, HPLC; type: biochemical; details: for DNA reacted to form drug-DNA conjugates: 33 μM (GC)4, 33 μM conjugate, 4% DMSO
Protocol: The amount of available formaldehyde was 99 μM (3×33 μM). […] The experiment was also run at 25° C. in pH 6.0 phosphate buffer containing 4% DMSO. […] The ratio for conjugate 1 was assumed to be 24:1, based upon the value for conjugate 2. […] Under these circumstances, the conjugate 1 area was estimated based upon its 480 nm absorbance, assuming the 24:1 ratio for A260:A480.
The formation of drug-DNA conjugates at 25° C. was monitored by HPLC (Method II). […] The experiment was also run in pH 6.0 phosphate buffer containing 4% DMSO.

MCF-7/ADR cells = assay: Cytotoxicity versus time of drug hydrolysis before addition to cells; type: cell-based, human; details: 1 μmol equiv./L, 25° C., serum-free media containing 10% DMSO, MCF-7/ADR survival
Protocol: The results of these experiments are illustrated in FIG. 2. […] However, the dimeric formaldehyde conjugate of daunorubicin completely lost its effectiveness within 25 min of standing in an aqueous solution. […] This biphasic curve is probably due to the decay mechanism of the dimeric formaldehyde conjugate of doxorubicin to doxorubicin in aqueous solution.
The drug solution was diluted 1:100 with DMSO, then 1:10 in serum-free RPMI media 1640. A volume of 20 μL of the resulting 0.5 μM (1 μmol equiv/L) drug solution was immediately added to the t=0 min lane. The remaining lanes were treated at 5 min intervals with 20 μL of the remaining drug solution, which was held at 25° C. between additions. Additionally, one lane was treated with 20 μL/well of serum-free RPMI media containing 10% DMSO (no drug) and one lane replaced with 200 μL/well of 1.5 M Tris buffer (no cells). Each lane was incubated at 37° C. for 3 h.

[2] = Hydrolysis in fetal bovine serum, HPLC; type: in vitro ADME; details: pH 8.1, in serum at 37° C., read-out: half-life of the equilibrium mixture with intermediate B with respect to formation of intermediates C and D

Row | Structure (SMILES) | fold less toxic than the next conjugate (MCF-7 cells) | IC50 (MCF-7 cells; read-out: IC50 Values, MCF-7, 3 h drug incubation in RPMI 1640, 10% fetal bovine serum, 1% DMSO, colony formation six days after treatment, fresh drug solution) [nM] | times more cytotoxic against the MCF-7 cell line than the parent drug (MCF-7 cells; relative to daunorubicin and doxorubicin, respectively) [times] | fold more toxic to MCF-7 cells than the parent drug (MCF-7 cells; relative to the respective parent drug) [fold] | (GC)4 reacted relative to the equivalent amount of daunorubicin and formaldehyde ([1]; 33 μM (GC)4, 55 μM conjugate, pH 7.4, 25° C., after approximately 1 min) | extent of DNA reaction to drug-DNA conjugates ([1]; 317 μM (GC)4, 357 μM conjugate, pH 7.4 phosphate buffer, 25° C., 41 h) | time of standing in an aqueous solution until effectiveness completely lost (MCF-7/ADR cells) [min] | DNA reacted to form drug-DNA conjugates ([1]; pH 6.0 phosphate buffer, 25° C., 5 h) [%] | DNA reacted to form drug-DNA conjugates ([1]; pH 7.3 phosphate buffer, 25° C., 24 h) [%] | DNA that had formed drug-DNA conjugates ([1]; 398 μM (GC)4, 796 μM conjugate, pH 7.3 phosphate buffer, 25° C., 5 h) [%] | half-life at 25 µM [2] [min]
1 | COc1cccc2c1C(=O)c1c(O)c3c(c(O)c1C2=O)C[C@@](O)(C(C)=O)C[C@@H]3O[C@H]1C[C@H]2[C@H](OCN2CN2CO[C@@H]3[C@H](C)O[C@@H](O[C@H]4C[C@](O)(C(C)=O)Cc5c(O)c6c(c(O)c54)C(=O)c4c(OC)cccc4C6=O)C[C@@H]32)[C@H](C)O1 [DAUNF, bis(3′-N-(3′-N,4′-O-methylenedaunorubicinyl))methane] | approximately 7 fold | 4 | 7 | 7 | four times as much (GC)4 | completely reacted | ≤ 25 | – | – | – | –
2 | COc1cccc2c1C(=O)c1c(O)c3c(c(O)c1C2=O)CC(O)(C(=O)CO)CC3OC1CC2C(OCN3CN2COC2C(C)OC(OC4C[C@](O)(C(=O)CO)Cc5c(O)c6c(c(O)c54)C(=O)c4c(OC)cccc4C6=O)CC23)C(C)O1 (stereo partly drawn) [EPIF] | approximately 7 fold | – | – | – | – | – | – | 64 | 68 | 91 | ≥ 120
